Test results reported in US11541028B2, “Peptide pharmaceuticals for treatment of NASH and other disorders” (Mederis Diabetes LLC, priority 2018, dated 2023).
Read-outs that look alike come from different tables or passages of the source. Numbered stars: 1 amine (or outer) side, 2 acyl side, 3 side chain; on linkers, the order of the positions; unused ones are H or OH. Bridge positions count the residues as written; N and C are the ends. Square brackets hold non-standard residues; d marks the D form. Side chains are listed from the residue outwards. Peptide text beside a SMILES is read from it. * marks the point of attachment. Melibiouronoyl(1β-O-dodecyl) = CCCCCCCCCCCCO[C@@H]1O[C@H](CO[C@H]2O[C@H](C(=O)*)[C@H](O)[C@H](O)[C@H]2O)[C@@H](O)[C@H](O)[C@H]1O; X2 = CCCCCCCCCCCCCCO[C@@H]1O[C@H](CO[C@H]2O[C@H](C(=O)*)[C@H](O)[C@H](O)[C@H]2O)[C@@H](O)[C@H](O)[C@H]1O; GlcA(1β-O-tetradecyl) = CCCCCCCCCCCCCCO[C@@H]1O[C@H](C(=O)*)[C@@H](O)[C@H](O)[C@H]1O; γGlu = O=C(O)[C@H](CCC(=O)[*:2])N[*:1]; Aib = CC(C)(N)C(=O)O

Experiments:
[1] = target: T1, human GLP-1 receptor (Homo sapiens, UniProt P43220); experiment: DiscoveRx LeadHunter cellular assay, cAMP stimulation, GLP-1 receptor in CHO cells; format: cell-based; details: human GLP-1 receptor in CHO cells (DiscoveRx); read-out: EC50 cAMP GLP-1 R
T1 construct: host or cells: CHO cells

[2] = target: T2, human glucagon receptor (Homo sapiens, UniProt P47871); experiment: DiscoveRx LeadHunter cellular assay, cAMP stimulation, glucagon receptor in CHO cells; format: cell-based
T2 construct: host or cells: CHO cells
T2 sequence (P47871 26-477): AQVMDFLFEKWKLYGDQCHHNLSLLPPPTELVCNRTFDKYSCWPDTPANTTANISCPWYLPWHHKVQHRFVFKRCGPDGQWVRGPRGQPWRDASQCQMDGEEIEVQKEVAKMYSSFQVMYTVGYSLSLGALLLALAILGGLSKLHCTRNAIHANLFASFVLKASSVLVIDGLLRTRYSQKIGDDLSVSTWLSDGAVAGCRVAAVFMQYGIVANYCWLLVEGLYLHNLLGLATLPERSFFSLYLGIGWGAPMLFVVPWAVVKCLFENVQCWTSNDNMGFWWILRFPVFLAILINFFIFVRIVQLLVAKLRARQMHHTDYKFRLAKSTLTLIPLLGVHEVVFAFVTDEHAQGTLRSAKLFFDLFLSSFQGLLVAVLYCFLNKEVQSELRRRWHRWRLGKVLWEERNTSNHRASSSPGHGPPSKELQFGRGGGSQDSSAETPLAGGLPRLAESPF

T1 sequence (P43220 24-463): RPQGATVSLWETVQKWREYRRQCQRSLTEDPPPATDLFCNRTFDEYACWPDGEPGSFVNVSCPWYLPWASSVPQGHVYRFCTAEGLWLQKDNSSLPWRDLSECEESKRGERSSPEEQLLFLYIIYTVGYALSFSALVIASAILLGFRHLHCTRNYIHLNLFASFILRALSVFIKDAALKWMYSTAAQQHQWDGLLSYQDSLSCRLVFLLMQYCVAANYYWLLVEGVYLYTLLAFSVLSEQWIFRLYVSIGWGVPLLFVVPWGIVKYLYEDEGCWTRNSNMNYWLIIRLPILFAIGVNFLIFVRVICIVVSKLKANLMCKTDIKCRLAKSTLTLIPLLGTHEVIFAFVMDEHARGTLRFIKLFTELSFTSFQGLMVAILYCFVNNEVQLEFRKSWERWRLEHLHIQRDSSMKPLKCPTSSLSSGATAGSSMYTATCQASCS

Row | Structure (SMILES) | EC50 [1] [nM] | EC50 [2] [nM] | EC50 ([2]; read-out: EC50 cAMP Glucagon R, human glucagon receptor in CHO cells (DiscoveRx)) [nM]
1 | CCCCCCCCCCCCO[C@@H]1O[C@H](CO[C@H]2O[C@H](C(=O)NCCCC[C@H](NC(=O)[C@H](CC(=O)O)NC(=O)[C@H](CO)NC(=O)[C@@H](NC(=O)[C@H](Cc3ccccc3)NC(=O)[C@@H](NC(=O)CNC(=O)[C@H](CCC(N)=O)NC(=O)C(C)(C)NC(=O)[C@@H](N)Cc3c[nH]cn3)[C@@H](C)O)[C@@H](C)O)C(=O)N[C@@H](CO)C(=O)N[C@@H](CCCCN)C(=O)N[C@@H](Cc3ccc(O)cc3)C(=O)N[C@@H](CC(C)C)C(=O)N[C@@H](CC(=O)O)C(=O)N[C@H]3CCC(=O)NCCCC[C@@H](C(=O)N[C@@H](CCC(=O)O)C(=O)N[C@@H](Cc4ccccc4)C(=O)N[C@H](C(=O)N[C@@H](CCC(=O)O)C(=O)N[C@@H](Cc4c[nH]c5ccccc45)C(=O)N[C@@H](CC(C)C)C(=O)N[C@@H](CC(C)C)C(=O)N[C@@H](CCC(N)=O)C(=O)N[C@H](C(N)=O)[C@@H](C)O)[C@@H](C)CC)NC(=O)[C@H](C)NC(=O)[C@H](C)NC(=O)[C@H](CCC(N)=O)NC3=O)[C@H](O)[C@H](O)[C@H]2O)[C@@H](O)[C@H](O)[C@H]1O [EU-A1598] (H-H[Aib]QGTFTSDK(Melibiouronoyl(1β-O-dodecyl))SKYLDEQAAKEFIEWLLQT-NH2; lactam 16-20; N-terminus assumed) | 0.026 | 0.199 | 
2 | CCCCCCCCCCO[C@@H]1O[C@H](C(=O)NCCCC[C@H](NC(=O)[C@@H](NC(=O)[C@H](Cc2ccccc2)NC(=O)[C@H](CCC(=O)O)NC(=O)[C@@H]2CCCCNC(=O)CC[C@H](NC(=O)[C@H](CC(=O)O)NC(=O)[C@H](CC(C)C)NC(=O)[C@H](Cc3ccc(O)cc3)NC(=O)[C@H](CCCCN)NC(=O)[C@H](CO)NC(=O)[C@H](Cc3ccc(O)cc3)NC(=O)[C@H](CC(=O)O)NC(=O)[C@H](CO)NC(=O)[C@@H](NC(=O)[C@H](Cc3ccccc3)NC(=O)[C@@H](NC(=O)CNC(=O)[C@H](CCC(N)=O)NC(=O)C(C)(C)NC(=O)[C@@H](N)Cc3c[nH]cn3)[C@@H](C)O)[C@@H](C)O)C(=O)N[C@@H](CCC(N)=O)C(=O)N[C@@H](C)C(=O)N[C@@H](C)C(=O)N2)[C@@H](C)CC)C(=O)N[C@@H](Cc2c[nH]c3ccccc23)C(=O)N[C@@H](CC(C)C)C(=O)N[C@@H](CC(C)C)C(=O)N[C@@H](CCC(N)=O)C(=O)N[C@H](C(=O)O)[C@@H](C)O)[C@@H](O)[C@H](O)[C@H]1O [EU-A1680] | 0.026 | 0.114 | 
3 | CCCCCCCCO[C@@H]1O[C@H](C(=O)NCCCC[C@H](NC(=O)[C@@H](NC(=O)[C@H](Cc2ccccc2)NC(=O)[C@H](CCC(=O)O)NC(=O)[C@@H]2CCCCNC(=O)CC[C@H](NC(=O)[C@H](CC(=O)O)NC(=O)[C@H](CC(C)C)NC(=O)[C@H](Cc3ccc(O)cc3)NC(=O)[C@H](CCCCN)NC(=O)[C@H](CO)NC(=O)[C@H](Cc3ccc(O)cc3)NC(=O)[C@H](CC(=O)O)NC(=O)[C@H](CO)NC(=O)[C@@H](NC(=O)[C@H](Cc3ccccc3)NC(=O)[C@@H](NC(=O)CNC(=O)[C@H](CCC(N)=O)NC(=O)C(C)(C)NC(=O)[C@@H](N)Cc3c[nH]cn3)[C@@H](C)O)[C@@H](C)O)C(=O)N[C@@H](CCC(N)=O)C(=O)N[C@@H](C)C(=O)N[C@@H](C)C(=O)N2)[C@@H](C)CC)C(=O)N[C@@H](Cc2c[nH]c3ccccc23)C(=O)N[C@@H](CC(C)C)C(=O)N[C@@H](CC(C)C)C(=O)N[C@@H](CCC(N)=O)C(=O)N[C@H](C(=O)O)[C@@H](C)O)[C@@H](O)[C@H](O)[C@H]1O [EU-A1679] | 0.009 | 0.14 | 
4 | CCCCCCCCCCCCO[C@@H]1O[C@H](CO[C@H]2O[C@H](C(=O)NCCCC[C@H](NC(=O)[C@H](CC(=O)O)NC(=O)[C@H](CO)NC(=O)[C@@H](NC(=O)[C@H](Cc3ccccc3)NC(=O)[C@@H](NC(=O)CNC(=O)[C@H](CCC(N)=O)NC(=O)C(C)(C)NC(=O)[C@@H](N)Cc3c[nH]cn3)[C@@H](C)O)[C@@H](C)O)C(=O)N[C@@H](CO)C(=O)N[C@@H](CCCCN)C(=O)N[C@@H](Cc3ccc(O)cc3)C(=O)N[C@@H](CC(C)C)C(=O)N[C@@H](CC(=O)O)C(=O)N[C@H]3CCC(=O)NCCCC[C@@H](C(=O)N[C@@H](CCC(=O)O)C(=O)N[C@@H](Cc4ccccc4)C(=O)N[C@H](C(=O)N[C@@H](CCC(=O)O)C(=O)N[C@@H](Cc4c[nH]c5ccccc45)C(=O)N[C@@H](CC(C)C)C(=O)N[C@@H](CC(C)C)C(=O)N[C@@H](CCC(N)=O)C(=O)N[C@H](C(=O)O)[C@@H](C)O)[C@@H](C)CC)NC(=O)[C@H](C)NC(=O)[C@H](C)NC(=O)[C@H](CCC(N)=O)NC3=O)[C@H](O)[C@H](O)[C@H]2O)[C@@H](O)[C@H](O)[C@H]1O [EU-A1599] (H-H[Aib]QGTFTSDK(Melibiouronoyl(1β-O-dodecyl))SKYLDEQAAKEFIEWLLQT-OH; lactam 16-20; N-terminus assumed) | 0.061 | 0.317 | 

Continued by falling EC50 [1], values first:

Row | EC50 [1] [nM] | EC50 [2] [nM] | EC50 ([2]; read-out: EC50 cAMP Glucagon R, human glucagon receptor in CHO cells (DiscoveRx)) [nM] | Structure (SMILES)
5 | 0.246 | 10 |  | CCCCCCCCCCCCCCO[C@@H]1O[C@H](C(=O)N[C@@H](CCC(=O)NCCCC[C@H](NC(=O)[C@H](C)NC(=O)[C@H](C)NC(=O)[C@H](CCC(N)=O)NC(=O)[C@@H]2CCCCNC(=O)CC[C@H](NC(=O)[C@H](CO)NC(=O)[C@H](Cc3ccc(O)cc3)NC(=O)[C@H](CC(=O)O)NC(=O)[C@H](CO)NC(=O)[C@@H](NC(=O)[C@H](Cc3ccccc3)NC(=O)[C@@H](NC(=O)CNC(=O)[C@H](CCC(N)=O)NC(=O)C(C)(C)NC(=O)[C@@H](N)Cc3c[nH]cn3)[C@@H](C)O)[C@@H](C)O)C(=O)N[C@@H](Cc3ccc(O)cc3)C(=O)N[C@@H](CC(C)C)C(=O)N[C@@H](CC(=O)O)C(=O)N2)C(=O)N[C@@H](CCC(=O)O)C(=O)N[C@@H](Cc2ccccc2)C(=O)N[C@H](C(=O)N[C@@H](CCC(N)=O)C(=O)N[C@@H](Cc2c[nH]c3ccccc23)C(=O)N[C@@H](CC(C)C)C(=O)N[C@@H](CC(C)C)C(=O)N[C@@H](CCC(N)=O)C(=O)N[C@H](C(N)=O)[C@@H](C)O)[C@@H](C)CC)C(=O)O)[C@@H](O)[C@H](O)[C@H]1O [EU-A1787] (H-H[Aib]QGTFTSDYSEYLDKQAAK([γGlu-GlcA(1β-O-tetradecyl)])EFIQWLLQT-NH2; lactam 12-16; N-terminus assumed)
6 | 0.037 |  | 0.175 | CCCCCCCCCCCCCCO[C@@H]1O[C@H](C(=O)NCCCC[C@H](N)C(=O)NCCCC[C@H](NC(=O)[C@@H](NC(=O)[C@H](Cc2ccccc2)NC(=O)[C@H](CCC(=O)O)NC(=O)[C@@H]2CCCCNC(=O)CC[C@H](NC(=O)[C@H](CC(=O)O)NC(=O)[C@H](CC(C)C)NC(=O)[C@H](Cc3ccc(O)cc3)NC(=O)[C@H](CCCCN)NC(=O)[C@H](CO)NC(=O)[C@H](Cc3ccc(O)cc3)NC(=O)[C@H](CC(=O)O)NC(=O)[C@H](CO)NC(=O)[C@@H](NC(=O)[C@H](Cc3ccccc3)NC(=O)[C@@H](NC(=O)CNC(=O)[C@H](CCC(N)=O)NC(=O)C(C)(C)NC(=O)[C@@H](N)Cc3c[nH]cn3)[C@@H](C)O)[C@@H](C)O)C(=O)N[C@@H](CCC(N)=O)C(=O)N[C@@H](C)C(=O)N[C@@H](C)C(=O)N2)[C@@H](C)CC)C(=O)N[C@@H](Cc2c[nH]c3ccccc23)C(=O)N[C@@H](CC(C)C)C(=O)N[C@@H](CC(C)C)C(=O)N[C@@H](CCC(N)=O)C(=O)N[C@H](C(N)=O)[C@@H](C)O)[C@@H](O)[C@H](O)[C@H]1O [EU-A1712]
7 | 0.029 | 0.107 |  | CCCCCCCCCCCCO[C@@H]1O[C@H](CO[C@H]2O[C@H](C(=O)NCCCC[C@@H]3NC(=O)[C@@H](NC(=O)[C@H](CC(=O)O)NC(=O)[C@H](CC(C)C)NC(=O)[C@H](Cc4ccc(O)cc4)NC(=O)[C@H](CCCCN)NC(=O)[C@H](CO)NC(=O)[C@H](Cc4ccc(O)cc4)NC(=O)[C@H](CC(=O)O)NC(=O)[C@H](CO)NC(=O)[C@@H](NC(=O)[C@H](Cc4ccccc4)NC(=O)[C@@H](NC(=O)CNC(=O)[C@H](CCC(N)=O)NC(=O)C(C)(C)NC(=O)[C@@H](N)Cc4c[nH]cn4)[C@@H](C)O)[C@@H](C)O)CCC(=O)NCCCC[C@@H](C(=O)N[C@@H](CCC(=O)O)C(=O)N[C@@H](Cc4ccccc4)C(=O)N[C@H](C(=O)N[C@@H](CCC(N)=O)C(=O)N[C@@H](Cc4c[nH]c5ccccc45)C(=O)N[C@@H](CC(C)C)C(=O)N[C@@H](CC(C)C)C(=O)N[C@@H](CCC(N)=O)C(=O)N[C@H](C(N)=O)[C@@H](C)O)[C@@H](C)CC)NC(=O)[C@H](C)NC(=O)[C@H](C)NC3=O)[C@H](O)[C@H](O)[C@H]2O)[C@@H](O)[C@H](O)[C@H]1O [EU-A1586]
8 | 0.021 | 0.113 |  | CCCCCCCCCCCCCCO[C@@H]1O[C@H](CO[C@H]2O[C@H](C(=O)NCCCC[C@H](NC(=O)[C@H](CC(=O)O)NC(=O)[C@H](CO)NC(=O)[C@@H](NC(=O)[C@H](Cc3ccccc3)NC(=O)[C@@H](NC(=O)CNC(=O)[C@H](CCC(N)=O)NC(=O)C(C)(C)NC(=O)[C@@H](N)Cc3c[nH]cn3)[C@@H](C)O)[C@@H](C)O)C(=O)N[C@@H](CO)C(=O)N[C@@H](CCCCN)C(=O)N[C@@H](Cc3ccc(O)cc3)C(=O)N[C@@H](CC(C)C)C(=O)N[C@@H](CC(=O)O)C(=O)N[C@H]3CCC(=O)NCCCC[C@@H](C(=O)N[C@@H](CCC(=O)O)C(=O)N[C@@H](Cc4ccccc4)C(=O)N[C@H](C(=O)N[C@@H](CCC(N)=O)C(=O)N[C@@H](Cc4c[nH]c5ccccc45)C(=O)N[C@@H](CC(C)C)C(=O)N[C@@H](CC(C)C)C(=O)N[C@@H](CCC(N)=O)C(=O)N[C@H](C(N)=O)[C@@H](C)O)[C@@H](C)CC)NC(=O)[C@H](C)NC(=O)[C@H](C)NC(=O)[C@H](CCC(N)=O)NC3=O)[C@H](O)[C@H](O)[C@H]2O)[C@@H](O)[C@H](O)[C@H]1O [EU-A1595] (H-H[Aib]QGTFTSDK(X2)SKYLDEQAAKEFIQWLLQT-NH2; lactam 16-20; N-terminus assumed)
